We go through two molecules from patent publication US7998963B2, “Arylpiperazine derivatives and uses thereof” (Roche Palo Alto LLC, priority 2008, dated 2011).

Experiment [1] has as its target T1, human dopamine transporter (hDAT) (Homo sapiens, UniProt Q01959).
T1 construct: expressed in transfected cells; host or cells: HEK-293
As to the kind of experiment: hDAT scintillation proximity assay (SPA), competition with [3H]-Vanoxerine. The class given is binding. Conditions: HEK-293 cells expressing recombinant hDAT, Ki by Cheng-Prusoff. The procedure: Screening for Compounds Active at Human Dopamine Transporter Using a Scintillation Proximity Assay (SPA)
This assay was used to determine the affinity of ligands for the dopamine transporter by competition with [^3H]-Vanoxerine.
HEK-293 cells (Tatsumi et al., Eur. J. Pharmacol. 1997, 30, 249-258) stably expressing recombinant hDAT were maintained with media (DMEM hi glucose with 10% FBS, 300 μg/ml G418 and 2 mM L-Glutamine) and incubated at 37° C. with 5% CO2. Cells were plated four hours prior to experiment by placing approximately 30,000 cells per well (in PBS) on white, opaque Cell-Tak coated 96 well plates. Extra buffer was apriated from the cell plates using an ELx405 plate washer.
^3[H] vanoxerine (GBR 12909) radioligand, specific activity approximately 59 Ci/mmol, stock concentration, 400 nM, and 50 mM Tris-HCl, 300 mM NaCl, (pH 7.4) buffers were used for Scintillation Proximity Assay IC50/Ki determination. […]
(§1) The % inhibition was calculated for each compound tested [(Compound CPM at maximum concentration-Non-Specific CPM)/Total CPM*100]. […]
[formula] where max=total binding, min=non specific binding, x=concentration (M) of the tested compound and n=Hill slope. The inhibition dissociation constant (Ki) of each compound was determined according to the method of Cheng-Prusoff and then converted into negative logarithm (pKi) of the Ki.

Experiment [2] addresses T2, human norepinephrine transporter (hNET) (Homo sapiens, UniProt P23975).
T2 construct: expressed in transfected cells; host or cells: HEK-293 (Clone: HEK-hNET #2)
As to the kind of experiment: hNET scintillation proximity assay (SPA), competition with [3H]-Nisoxetine. The format is binding. Conditions: membranes of HEK-293 cells expressing recombinant hNET, Ki by Cheng-Prusoff. The procedure: Screening for Compounds Active at Human Norepinephrine Transporter (HNET) Using a Scintillation Proximity Assay (SPA)
This assay was used to determine the affinity of ligands for the hNET transporter by competition with [^3H]-Nisoxetine. As in the hSERT assay of the above example, receptor-containing membranes were pre-coupled to the SPA beads and the binding of the appropriate radioligand to the transporter was measured. The light emission was proportional to the amount of bound radioligand, with unbound radioligand producing no signal. […]
Cell membranes were prepared using a membrane preparation buffer of 50 mM TRIS (pH 7.4). […] After a second centrifugation, the pellet was re-homogenized and brought to a final volume determined during the assay. […]
^3[H] […] The mixtures were allowed to stand at room temperature for one hour, and were then counted on a Packard TopCount LCS, a generic SPA counting protocol settings (Energy Range: Low, Efficiency Mode: Normal, Region A: 1.50-35.00, Region B: 1.50-256.00, Count Time (min.): 0.40, Background Subtract: none, Half-Life Correction: no, Quench Indicator: tSIS, Platemap blank subtraction: No, Cross talk reduction: Off).
as §1

T1 sequence (Q01959 whole entry): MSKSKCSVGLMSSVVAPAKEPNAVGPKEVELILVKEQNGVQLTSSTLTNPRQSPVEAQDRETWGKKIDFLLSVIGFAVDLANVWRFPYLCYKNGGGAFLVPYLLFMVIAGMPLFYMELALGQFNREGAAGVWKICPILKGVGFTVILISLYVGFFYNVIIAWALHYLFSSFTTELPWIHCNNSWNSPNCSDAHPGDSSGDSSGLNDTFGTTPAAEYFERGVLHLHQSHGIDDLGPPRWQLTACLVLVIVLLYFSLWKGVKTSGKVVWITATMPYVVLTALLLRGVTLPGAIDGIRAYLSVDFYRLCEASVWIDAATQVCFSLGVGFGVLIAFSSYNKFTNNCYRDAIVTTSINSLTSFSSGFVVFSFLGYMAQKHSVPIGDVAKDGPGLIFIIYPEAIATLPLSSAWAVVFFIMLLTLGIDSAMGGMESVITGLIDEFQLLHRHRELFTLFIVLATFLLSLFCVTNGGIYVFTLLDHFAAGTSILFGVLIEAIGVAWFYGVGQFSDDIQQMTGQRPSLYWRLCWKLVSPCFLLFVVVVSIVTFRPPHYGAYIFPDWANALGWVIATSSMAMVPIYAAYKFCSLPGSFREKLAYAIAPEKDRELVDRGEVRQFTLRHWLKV
T2 sequence (P23975 whole entry): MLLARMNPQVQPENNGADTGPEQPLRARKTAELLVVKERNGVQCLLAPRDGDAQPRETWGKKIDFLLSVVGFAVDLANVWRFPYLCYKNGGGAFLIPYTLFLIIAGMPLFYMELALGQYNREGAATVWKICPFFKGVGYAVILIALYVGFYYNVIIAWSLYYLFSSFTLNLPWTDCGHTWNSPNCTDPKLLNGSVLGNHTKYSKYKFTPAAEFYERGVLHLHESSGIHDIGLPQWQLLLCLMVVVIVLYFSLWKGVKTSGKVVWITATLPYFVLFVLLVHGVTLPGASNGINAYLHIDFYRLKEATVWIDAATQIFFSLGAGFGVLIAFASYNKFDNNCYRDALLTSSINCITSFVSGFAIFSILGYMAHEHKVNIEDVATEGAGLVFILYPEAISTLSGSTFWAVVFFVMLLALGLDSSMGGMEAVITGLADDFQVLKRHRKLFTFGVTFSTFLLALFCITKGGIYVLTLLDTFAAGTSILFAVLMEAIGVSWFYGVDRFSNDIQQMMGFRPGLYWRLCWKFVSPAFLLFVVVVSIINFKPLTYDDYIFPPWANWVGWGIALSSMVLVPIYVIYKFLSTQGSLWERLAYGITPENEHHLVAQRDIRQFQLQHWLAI

In the case of `c1cc2[nH]ncc2cc1N1CCNC[C@H]1CCC1CC1` [5-[(R)-2-(2-Cyclopropyl-ethyl)-piperazin-1-yl]-1H-indazole], the Ki in experiment [1] was about 12.6 nM.
As for `c1ccc(OCC2CNCCN2c2ccc3[nH]ncc3c2)cc1` (centres unmarked) [5-(2-Phenoxymethyl-piperazin-1-yl)-1H-indazole], in experiment [2], the Ki was about 6.31 nM.
